Read-outs that look alike come from different tables or passages of the source.
What was measured:
[1] = ref PharmaPendium, cited from earlier work
[2] = tested on: hiPSC-derived neurons co-cultured with human primary astrocytes in 3D; assay: Ca2+ transient oscillation assay (FDSS), 3D spheroids; type: cell-based; conditions: 60 min
How it was run: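 Fura-2 fluorescence was read twice for 20 min each: a baseline 10 min after 0.04% DMSO, and again 60 min after compound addition at nominal final concentration. The 3D co-cultures (1:1 hiPSC neurons from a donor and human astrocytes, 8000 each) matured 5 weeks in BrainPhys medium after a 1-week differentiation.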

[3] = tested on: hiPSC-derived neurons co-cultured with human primary astrocytes in 2D; assay: Ca2+ transient oscillation assay (FDSS), 2D co-culture; type: cell-based; conditions: for activation at 0.37 µM / activation at 1.11 µM / activation at 3.33 µM / activation at 10 µM: Homo sapiens, 1 h, 60 min
How it was run: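 hiPSC-derived excitatory neurons (CW50065, Quick-Neuron EX-SeV) co-cultured with human primary astrocytes at 4:1 (10,000:2500 cells per well). Cal-520-loaded cells in HBSS with 2 mM CaCl2 and 10 mM HEPES were pretreated with 0.04% DMSO.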

[4] = Table 1, peak plasma concentration in men, free therapeutic Cmax
[5] = Table 2, highest plasma concentration in humans after the therapeutic dose
[6] = read-out: Area under the curve - 2D Mean
[7] = read-out: Peak amplitude - 2D Mean
[8] = read-out: Peak-to-peak interval - 2D Mean

CC[C@@H]1C(=O)OC[C@@H]1Cc1cncn1C [Pilocarpine]
Free Cmax [1, 4]: 30 to 550 nM
Free Cmax [1, 5]: 30 to 550 nM
Area under the curve - 3D Mean ([2]; 0.37 µM): 141.5 % change from baseline
Peak Number—3D Mean ([2]; 0.37 µM): 16.7 % change from baseline
Peak amplitude - 3D Mean ([2]; 0.37 µM): 115.6 % change from baseline
Peak width - 3D Mean ([2]; 0.37 µM): 6.3 % change from baseline
Peak-to-peak interval - 3D Mean ([2]; 0.37 µM): −10.1 % change from baseline
Area under the curve - 3D Mean ([2]; 1.11 µM): 173.5 % change from baseline
Peak Number—3D Mean ([2]; 1.11 µM): 23.9 % change from baseline
Peak amplitude - 3D Mean ([2]; 1.11 µM): 145.8 % change from baseline
Peak width - 3D Mean ([2]; 1.11 µM): 6.7 % change from baseline
Peak-to-peak interval - 3D Mean ([2]; 1.11 µM): −10.0 % change from baseline
Area under the curve - 3D Mean ([2]; 3.33 µM): 168.7 % change from baseline
Peak Number—3D Mean ([2]; 3.33 µM): 12.9 % change from baseline
Peak amplitude - 3D Mean ([2]; 3.33 µM): 135.3 % change from baseline
Peak width - 3D Mean ([2]; 3.33 µM): 10.2 % change from baseline
Peak-to-peak interval - 3D Mean ([2]; 3.33 µM): −3.3 % change from baseline
Area under the curve - 3D Mean ([2]; 10 µM): 145.2 % change from baseline
Peak Number—3D Mean ([2]; 10 µM): 23.1 % change from baseline
Peak amplitude - 3D Mean ([2]; 10 µM): 122.5 % change from baseline
Peak width - 3D Mean ([2]; 10 µM): 7.0 % change from baseline
Peak-to-peak interval - 3D Mean ([2]; 10 µM): −12.6 % change from baseline
effect on peak number / Ca2+ neuronal oscillations, in words ([3]; 2D format): significantly increased peak number
activation at 0.37 µM [3, 6]: 26.7%
activation at 0.37 µM ([3]; read-out: Peak Number—2D Mean): 11.5%
activation at 0.37 µM [3, 7]: 9.3%
activation at 0.37 µM ([3]; read-out: Peak width - 2D Mean): 19.2%
activation at 0.37 µM [3, 8]: 1.3%
activation at 1.11 µM [3, 6]: 38.8%
activation at 1.11 µM ([3]; read-out: Peak Number—2D Mean): 8.3%
activation at 1.11 µM [3, 7]: 8%
activation at 1.11 µM ([3]; read-out: Peak width - 2D Mean): 35.7%
activation at 1.11 µM [3, 8]: 5.8%
activation at 3.33 µM [3, 6]: 26.7%
activation at 3.33 µM ([3]; read-out: Peak Number—2D Mean): 34.3%
activation at 3.33 µM [3, 7]: 5.8%
activation at 3.33 µM ([3]; read-out: Peak width - 2D Mean): 23.2%
activation at 3.33 µM [3, 8]: -9.2%
activation at 10 µM [3, 6]: 22.8%
activation at 10 µM ([3]; read-out: Peak Number—2D Mean): -19.2%
activation at 10 µM [3, 7]: 3.8%
activation at 10 µM ([3]; read-out: Peak width - 2D Mean): 23%
activation at 10 µM [3, 8]: 29.8%

CCN(CC)CCCC(C)Nc1c2ccc(Cl)cc2nc2ccc(OC)cc12 (stereo not shown) [Quinacrine, quinacrine]
Free Cmax [1, 4]: 50 nM
Free Cmax [1, 5]: 50 nM
Area under the curve - 3D Mean ([2]; 0.37 µM): 123.5 % change from baseline
Peak Number—3D Mean ([2]; 0.37 µM): 3.2 % change from baseline
Peak amplitude - 3D Mean ([2]; 0.37 µM): 113.4 % change from baseline
Peak width - 3D Mean ([2]; 0.37 µM): −1.8 % change from baseline
Peak-to-peak interval - 3D Mean ([2]; 0.37 µM): −0.7 % change from baseline
Area under the curve - 3D Mean ([2]; 1.11 µM): 149.1 % change from baseline
Peak Number—3D Mean ([2]; 1.11 µM): 0.4 % change from baseline
Peak amplitude - 3D Mean ([2]; 1.11 µM): 128.3 % change from baseline
Peak width - 3D Mean ([2]; 1.11 µM): 4.2 % change from baseline
Peak-to-peak interval - 3D Mean ([2]; 1.11 µM): 6.2 % change from baseline
Area under the curve - 3D Mean ([2]; 3.33 µM): 139.1 % change from baseline
Peak Number—3D Mean ([2]; 3.33 µM): 14.1 % change from baseline
Peak amplitude - 3D Mean ([2]; 3.33 µM): 108.9 % change from baseline
Peak width - 3D Mean ([2]; 3.33 µM): 10.6 % change from baseline
Peak-to-peak interval - 3D Mean ([2]; 3.33 µM): −5.5 % change from baseline
Area under the curve - 3D Mean ([2]; 10 µM): 128.2 % change from baseline
Peak Number—3D Mean ([2]; 10 µM): 12.5 % change from baseline
Peak amplitude - 3D Mean ([2]; 10 µM): 108.3 % change from baseline
Peak width - 3D Mean ([2]; 10 µM): 9.5 % change from baseline
Peak-to-peak interval - 3D Mean ([2]; 10 µM): −9.8 % change from baseline
activation at 0.37 µM [3, 6]: 5.3%
activation at 0.37 µM ([3]; read-out: Peak Number—2D Mean): -2.7%
activation at 0.37 µM [3, 7]: 1.8%
activation at 0.37 µM ([3]; read-out: Peak width - 2D Mean): 2.8%
activation at 0.37 µM [3, 8]: 7%
activation at 1.11 µM [3, 6]: 11.2%
activation at 1.11 µM ([3]; read-out: Peak Number—2D Mean): -2.8%
activation at 1.11 µM [3, 7]: 1.2%
activation at 1.11 µM ([3]; read-out: Peak width - 2D Mean): 10.7%
activation at 1.11 µM [3, 8]: -4%
activation at 3.33 µM [3, 6]: -13.8%
activation at 3.33 µM ([3]; read-out: Peak Number—2D Mean): -11%
activation at 3.33 µM [3, 7]: -7.8%
activation at 3.33 µM ([3]; read-out: Peak width - 2D Mean): -12.8%
activation at 3.33 µM [3, 8]: 40.2%
activation at 10 µM [3, 6]: -84.7%
activation at 10 µM ([3]; read-out: Peak Number—2D Mean): -92.2%
activation at 10 µM [3, 7]: -78%
activation at 10 µM ([3]; read-out: Peak width - 2D Mean): -84.3%
activation at 10 µM [3, 8]: -18.2%

From PMC10046961, “High-Throughput Screening Assay for Detecting Drug-Induced Changes in Synchronized Neuronal Oscillations and Potential Seizure Risk Based on Ca^2+ Fluorescence Measurements in Human Induced Pluripotent Stem Cell (hiPSC)-Derived Neuronal 2D and 3D Cultures” (Cells, 2023)
